Here are results for eleven compounds from ChEMBL document CHEMBL1201862, “PubChem BioAssay data set” (2004).

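All cell lines were grown in 96-well plates and treated with compound for 48 hours. Here, GI50 denotes the concentration required for 50% inhibition of growth.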 Active and inactive are the calls of the source. Cut-off read from the data, not from the text of the source: active = GI50 up to about 1.1 µM and inactive = higher. Some results are limits rather than exact numbers.

Holding throughout (assay): NCI-60 cell line screen, 48 h
Assay [1] has as its system NCI/ADR-RES.
For assay [2], the system named is SF-295.
For assay [3], the system named is SK-MEL-5.
The subject of assay [4] is IGROV-1.
The subject of assay [5] is RPMI-8226.
Assay [6] concerns MDA-MB-231.
Assay [7] concerns Hs-578T.
Assay [8] has as its system KM12.
Assay [9] deals with CAKI-1.
The test system of assay [10] is A498.
In assay [11] the test system is MCF7.
Assay [12] deals with Malme-3M.
Assay [13] deals with M14.
Assay [14] deals with HCT-15.
The subject of assay [15] is A549.
In assay [16] the test system is MDA-N.
For assay [17], the system named is COLO 205.
The subject of assay [18] is UO-31.
Assay [19] deals with HL-60.
Assay [20] relates to HCC 2998.

Consider `Nc1nc(N)c(N=Nc2ccc([As](=O)(O)O)c(O)c2)c(N)n1`, for which the GI50 in assay [1] is > 100 µM (inactive); in assay [2], 33.7 µM (inactive); in assay [3], 20.3 µM (inactive); in assay [4] it was 4.61 µM (inactive); in assay [5], 3.21 µM (inactive); in [6], > 54.2 µM (inactive). The GI50 in [7] is 13 µM (inactive); in assay [8], 28.8 µM (inactive); in assay [9] it was 58.3 µM (inactive); in assay [10] it was 83.6 µM (inactive); in [11], 3.75 µM (inactive); in assay [12], 79.1 µM (inactive). In addition, the GI50 was 35.6 µM (inactive) in [13]; 37.6 µM in assay [14]; > 82.4 µM (inactive) in assay [15]; 0.839 µM (active) in [16]; 22 µM (inactive) in assay [17]; > 88.9 µM (inactive) in assay [18]. The GI50 in assay [19] was 2.96 µM (inactive).
Consider `CSc1ccc(/C=C/c2ccnc3ccccc23)cc1`, for which the GI50 is 9.73 µM (inactive) in [1]; 14.4 µM (inactive) in assay [2]; 6.08 µM (inactive) in [3]; 16.4 µM (inactive) in [4]; 8.43 µM (inactive) in assay [5]; 17 µM (inactive) in [6]. Besides, the GI50 in assay [7] is 20.9 µM (inactive); in assay [8], 20.3 µM (inactive); in assay [10], 15.5 µM (inactive); in [11], 13.6 µM (inactive); in assay [12] it was 17.6 µM (inactive); in assay [20], 13.9 µM (inactive). The GI50 in [13] is 9.04 µM (inactive); in [14], 11.5 µM; in [15], 12.5 µM (inactive); in [16], 13.7 µM (inactive); in [17], 11.3 µM (inactive); in assay [18] it was 11.8 µM (inactive). The GI50 in assay [19] is 3.97 µM (inactive).
On to `O=c1[nH]c2ccccc2c(=O)c2cc3ccccc3cc12`, for which the GI50 in assay [1] was 26.6 µM (inactive); in assay [2] it was 18.6 µM (inactive); in assay [3], 49.2 µM (inactive); in [4], 48.2 µM (inactive); in assay [6], 6.35 µM (inactive); in [7], 8.81 µM (inactive). Besides, the GI50 was 97.3 µM (inactive) in [8]; 16.2 µM (inactive) in assay [9]; 17.2 µM (inactive) in assay [10]; > 100 µM (inactive) in assay [11]; 45.6 µM (inactive) in assay [12]; > 100 µM (inactive) in [20]. The GI50 in assay [13] was 45.3 µM (inactive); in assay [14] it was 74.8 µM; in assay [15], 31.3 µM (inactive); in [16], > 100 µM (inactive); in assay [17] it was 88.7 µM (inactive); in assay [18], 35.3 µM (inactive). Besides, the GI50 in assay [19] was 40 µM (inactive).
With `Cn1c(=O)c(C(=O)Nc2nc(C34CC5CC(CC(C5)C3)C4)cs2)c(O)c2ccccc21`, the GI50 in [1] is 13.2 µM (inactive); in [2], > 100 µM (inactive); in [3] it was > 100 µM (inactive); in assay [4] it was 77.3 µM (inactive); in assay [5] it was > 100 µM (inactive); in [6], 70 µM (inactive). Moreover, the GI50 is 23.8 µM (inactive) in assay [7]; > 100 µM (inactive) in assay [8]; 73.5 µM (inactive) in assay [9]; 58.9 µM (inactive) in [10]; > 100 µM (inactive) in [11]; > 100 µM (inactive) in assay [12]. Moreover, the GI50 was > 100 µM (inactive) in assay [20]; more than 100 µM in [14]; 79.8 µM (inactive) in assay [15]; > 100 µM (inactive) in assay [16]; > 100 µM (inactive) in [17]; > 100 µM (inactive) in [18]. Besides, the GI50 in [19] was 86.9 µM (inactive).
On to `CSc1c(C#N)c(S)n(-c2ccc(Cl)cc2)c(=O)c1C#N`, for which the GI50 was 39.8 µM (inactive) in [1]; 83.9 µM (inactive) in assay [3]; 80.7 µM (inactive) in [4]; 38.7 µM (inactive) in assay [5]; > 100 µM (inactive) in assay [6]; > 100 µM (inactive) in assay [7]. The GI50 in assay [8] is 40.2 µM (inactive); in [9], > 100 µM (inactive); in [10] it was > 100 µM (inactive); in assay [11], > 100 µM (inactive); in assay [12], > 100 µM (inactive); in assay [20] it was > 100 µM (inactive). Also, the GI50 in assay [13] is > 100 µM (inactive); in assay [14], 74.1 µM; in assay [15] it was > 100 µM (inactive); in [16], > 100 µM (inactive); in assay [17], > 100 µM (inactive); in assay [18], 27.9 µM (inactive). In assay [19], the GI50 was 52.5 µM (inactive).
With `CNc1ccc(OC)cc1S(=O)(=O)c1ccccc1[N+](=O)[O-]`, the GI50 in [1] is 69.8 µM (inactive); in [2], > 100 µM (inactive); in assay [3], 51.3 µM (inactive); in assay [4], > 100 µM (inactive); in assay [5] it was > 100 µM (inactive); in assay [6], > 100 µM (inactive). In addition, the GI50 in [7] was > 100 µM (inactive); in [10] it was 47.4 µM (inactive); in assay [11], > 100 µM (inactive); in [12], 82.8 µM (inactive); in [20] it was > 100 µM (inactive); in assay [13], > 100 µM (inactive). The GI50 in [14] was more than 100 µM; in [15], 98.2 µM (inactive); in assay [16], > 100 µM (inactive); in assay [17] it was > 100 µM (inactive); in assay [18], > 100 µM (inactive); in assay [19], > 100 µM (inactive).
Turning to `Cc1c(C(C)C)cc(OCCO)cc1C(C)C`, the GI50 is 40 µM (inactive) in [1]; 34.4 µM (inactive) in assay [2]; 17.6 µM (inactive) in assay [3]; 58.3 µM (inactive) in assay [4]; 25.2 µM (inactive) in [5]; 32.9 µM (inactive) in [6]. Moreover, the GI50 is 27.8 µM (inactive) in assay [7]; 43.2 µM (inactive) in assay [8]; 70.6 µM (inactive) in assay [9]; 31.3 µM (inactive) in assay [10]; 33 µM (inactive) in assay [11]; 55.6 µM (inactive) in assay [20]. In addition, the GI50 in assay [13] was 38.8 µM (inactive); in [14] it was 35.6 µM; in assay [15], 38.3 µM (inactive); in assay [16], 31.2 µM (inactive); in assay [17] it was 34.8 µM (inactive); in assay [18], 67.1 µM (inactive). Also, the GI50 in assay [19] was 23.1 µM (inactive).
Regarding `CCNCC(=O)Nc1ccc2c(c1)C(=O)c1ccc(NC(=O)CNCC)cc1C2=O`, the GI50 in assay [1] was 6.08 µM (inactive); in assay [2] it was 3.33 µM (inactive); in [3] it was 36.4 µM (inactive); in assay [4], 5.51 µM (inactive); in assay [6] it was 3.3 µM (inactive); in [7] it was 4.02 µM (inactive). In addition, the GI50 in [8] was 11.7 µM (inactive); in assay [9], 8.77 µM (inactive); in [10], 2.62 µM (inactive); in assay [11], 1.64 µM (inactive); in [12], 15.5 µM (inactive); in [20] it was 1.7 µM (inactive). Also, the GI50 in [13] is 3.5 µM (inactive); in assay [14] it was 1.93 µM; in assay [15], 2.41 µM (inactive); in assay [16], 4.59 µM (inactive); in [17], 1.71 µM (inactive); in assay [18], 3.21 µM (inactive). In assay [19], the GI50 is 3.01 µM (inactive).
For the compound `COC(=O)CCc1ccc2c(c1)CC1(Cc3ccccc3C1)C2`, the GI50 is > 100 µM (inactive) in [1]; > 100 µM (inactive) in assay [2]; 33.6 µM (inactive) in [3]; > 100 µM (inactive) in [4]; > 100 µM (inactive) in [5]; > 100 µM (inactive) in [6]. Further, the GI50 in assay [7], in [8], in assay [10], in assay [11], in assay [12] and in [20] was > 100 µM (inactive) each time. Besides, the GI50 is > 100 µM (inactive) in assay [13]; more than 100 µM in assay [14]; 98.4 µM (inactive) in [15]; > 100 µM (inactive) in [16]; > 100 µM (inactive) in assay [17]; > 100 µM (inactive) in assay [18]. In addition, the GI50 in [19] is 51.9 µM (inactive).
For the compound `CC(=O)c1c(C)cc2cccc(OC3OC(CO)C(O)C(O)C3O)c2c1O.CC1OC(O)C(O)C(O)C1O` (stereo not drawn), the GI50 in assay [1], in assay [2], in assay [3], in assay [4], in assay [5] and in assay [6] was > 100 µM (inactive) each time. For the same compound, the GI50 in [7], in assay [8], in [9], in assay [10], in assay [11] and in [12] was > 100 µM (inactive) throughout. Further, the GI50 in assay [20] is > 100 µM (inactive); in assay [13] it was > 100 µM (inactive); in assay [14], more than 100 µM; in [15], > 100 µM (inactive); in [16], > 100 µM (inactive); in [17], > 100 µM (inactive). In [19], the GI50 is > 100 µM (inactive).
Take `Cc1cn(C2CC(N=[N+]=[N-])C(CO)O2)c(=O)n(CCCCO)c1=O` (stereo not drawn): the GI50 in assay [1], in [2], in [4], in assay [5], in [6] and in [7] was > 100 µM (inactive) throughout. The GI50 in assay [8], in assay [9], in [10], in assay [11], in assay [12] and in assay [20] was > 100 µM (inactive) in each case. Besides, the GI50 in assay [13] is > 100 µM (inactive); in [14], more than 100 µM; in [15], > 100 µM (inactive); in assay [16] it was > 100 µM (inactive); in assay [17], > 100 µM (inactive); in [18], > 100 µM (inactive). For the same compound, in assay [19], the GI50 was > 100 µM (inactive).
